The results in this text go back to patent US20230121086A1, “RORgT INHIBITOR, PREPARATION METHOD THEREOF AND USE THEREOF” (SUNSHINE LAKE PHARMA CO., LTD., priority 2020, published 2023).

SMILES strings stand for the structures.

This assay concerns the target T1, RORγt (Homo sapiens, UniProt P51449).
T1 construct: […]
T1 sequence (P51449 269-508 limits assumed): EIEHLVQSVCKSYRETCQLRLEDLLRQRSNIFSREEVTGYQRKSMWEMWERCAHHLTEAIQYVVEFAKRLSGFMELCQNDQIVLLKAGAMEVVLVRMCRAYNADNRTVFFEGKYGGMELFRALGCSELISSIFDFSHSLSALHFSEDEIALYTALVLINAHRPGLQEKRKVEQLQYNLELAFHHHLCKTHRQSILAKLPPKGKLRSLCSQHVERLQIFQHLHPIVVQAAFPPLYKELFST
Nature of the assay: Fluorescence resonance energy transfer (FRET) test, inhibitory activity of RORγt. It is filed as biochemical. Particulars: FRET, B-RORγt LBD / Biotin-SRC1; read-out: IC50.
`CCS(=O)(=O)c1ccc([C@H](COC(N)=O)NC(=O)c2ccc(N3C[C@@H](Oc4ccc(Cl)cn4)C[C@H]3COC(F)F)cc2)cc1` [Example 153, (R)-2-(4-((2S,4S)-4-((5-chloropyridin-2-yl)oxy)-2-((difluoromethoxy)methyl)pyrrolidin-1-yl)benzoylamino)-2-(4-(ethylsulfonyl)phenyl)ethyl carbamate]: the 50% inhibitory concentration (IC50) was 5 nM.
In the case of `CCS(=O)(=O)c1ccc([C@H](COC(=O)N(C)C)NC(=O)c2ccc(N3C[C@@H](Oc4ccc(C(F)(F)F)cc4)C[C@H]3COC(F)F)cc2)cc1` [Example 154, (R)-2-(4-((2S,4S)-2-((difluoromethoxy)methyl)-4-(4-(trifluoromethyl)phenoxy)pyrrolidin-1-yl)benzoylamino)-2-(4-(ethylsulfonyl)phenyl)ethyl dimethylcarbamate] it was 47 nM.
To `CCS(=O)(=O)c1ccc([C@H](COC(=O)NC)NC(=O)c2ccc(N3C[C@@H](Oc4ccc(OC(F)(F)F)cn4)C[C@H]3COC(F)F)cc2)cc1` [Example 155, (R)-2-(4-((2S,4S)-2-((difluoromethoxy)methyl)-4-((5-(trifluoromethoxy)pyridin-2-yl)oxy)pyrrolidin-1-yl)benzoylamino)-2-(4-(ethylsulfonyl)phenyl)ethyl methylcarbamate] belongs 11 nM.
In the case of `CCS(=O)(=O)c1ccc([C@H](COC(N)=O)NC(=O)c2ccc(N3C[C@@H](Oc4ccc(OC(F)(F)F)cn4)C[C@H]3COC(F)F)cc2)cc1` [Example 156, (R)-2-(4-((2S,4S)-2-((difluoromethoxy)methyl)-4-((5-(trifluoromethoxy)pyridin-2-yl)oxy)pyrrolidin-1-yl)benzoylamino)-2-(4-(ethylsulfonyl)phenyl)ethyl carbamate] it was 3.1 nM.
Regarding `CCS(=O)(=O)c1ccc([C@H](CC#N)NC(=O)c2ccc(N3C[C@@H](Oc4ccc(-n5nccn5)cc4)C[C@H]3COC(F)F)cc2)cc1` [Example 157, 4-((2S,4S)-4-(4-(2H-1,2,3-triazol-2-yl)phenoxy)-2-((difluoromethoxy)methyl)pyrrolidin-1-yl)-N—((S)-2-cyano-1-(4-(ethylsulfonyl)phenyl)ethyl)benzamide], the IC50 was determined as 6.9 nM.
To `CCS(=O)(=O)c1ccc([C@H](CC#N)NC(=O)c2ccc(N3C[C@@H](Oc4ccc(-n5cccn5)cn4)C[C@H]3COC(F)F)cc2)cc1` [Example 158] belongs 7.4 nM.
To `CCS(=O)(=O)c1ccc([C@H](CC#N)NC(=O)c2ccc(N3C[C@@H](Oc4ccc(-n5cc(C)cn5)cc4)C[C@H]3COC(F)F)cc2)cc1` [Example 159, N—((S)-2-cyano-1-(4-(ethylsulfonyl)phenyl)ethyl)-4-((2S,4S)-2-((difluoromethoxy)methyl)-4-(4-(4-methyl-1H-pyrazol-1-yl)phenoxy)pyrrolidin-1-yl) benzamide] belongs 10.2 nM; to `CCS(=O)(=O)c1ccc([C@H](CC#N)NC(=O)c2ccc(N3C[C@@H](Oc4ccc(Cl)cn4)C[C@H]3COC(F)F)cc2)cc1` [Example 160, 4-((2S,4S)-4-((5-chloropyridin-2-yl)oxy)-2-((difluoromethoxy)methyl)pyrrolidin-1-yl)-N—((S)-2-cyano-1-(4-(ethylsulfonyl)phenyl)ethyl)benzamide], 5.6 nM.
To `CCS(=O)(=O)c1ccc([C@H](CC#N)NC(=O)c2ccc(N3C[C@@H](Oc4ccc(-n5ccc(F)n5)cc4)C[C@H]3COC(F)F)cc2)cc1` [Example 162, N—((S)-2-cyano-1-(4-(ethylsulfonyl)phenyl)ethyl)-4-((2S,4S)-2-((difluoromethoxy)methyl)-4-(4-(3-fluoro-1H-pyrazol-1-yl)phenoxy)pyrrolidin-1-yl)benzamide] belongs 9.9 nM; to `CCS(=O)(=O)c1ccc([C@H](CC#N)NC(=O)c2ccc(N3C[C@@H](Oc4ccc(-n5ccc(C)n5)cc4)C[C@H]3COC(F)F)cc2)cc1` [Example 163, N—((S)-2-cyano-1-(4-(ethylsulfonyl)phenyl)ethyl)-4-((2S,4S)-2-((difluoromethoxy)methyl)-4-(4-(3-methyl-1H-pyrazol-1-yl)phenoxy)pyrrolidin-1-yl) benzamide], 5.1 nM.
